# According to patent publication US20180250303A1, “TGF BETA RECEPTOR ANTAGONISTS” (BRISTOL-MYERS SQUIBB COMPANY, priority 2015, published 2018):
# Columns and labels:
# HIS-TGFβR2 WT = HIS-TGFβR2 WT (Homo sapiens, UniProt P37173); test: HTRF probe displacement assay, TGFβR2 HIS WT; format: binding; details: 1 nM HIS-TGFβR2 WT, labeled probe at Kd, 1 hour at room temperature
# Experimental: (§1) Compounds were dissolved at 10 mM in dimethylsulfoxide (DMSO) and evaluated at eleven concentrations. IC50 values were derived by non-linear regression analysis.
# HIS-TGFβR1 T204D = biological target: T1, HIS-TGFβR1 T204D (Homo sapiens, UniProt P36897, T204D); test: HTRF probe displacement assay, TGFβR1 HIS T204D; format: binding; details: 1 nM HIS-TGFβR1 T204D, labeled probe at Kd, 1 hour at room temperature
# T1 sequence (P36897 34-503 T204D): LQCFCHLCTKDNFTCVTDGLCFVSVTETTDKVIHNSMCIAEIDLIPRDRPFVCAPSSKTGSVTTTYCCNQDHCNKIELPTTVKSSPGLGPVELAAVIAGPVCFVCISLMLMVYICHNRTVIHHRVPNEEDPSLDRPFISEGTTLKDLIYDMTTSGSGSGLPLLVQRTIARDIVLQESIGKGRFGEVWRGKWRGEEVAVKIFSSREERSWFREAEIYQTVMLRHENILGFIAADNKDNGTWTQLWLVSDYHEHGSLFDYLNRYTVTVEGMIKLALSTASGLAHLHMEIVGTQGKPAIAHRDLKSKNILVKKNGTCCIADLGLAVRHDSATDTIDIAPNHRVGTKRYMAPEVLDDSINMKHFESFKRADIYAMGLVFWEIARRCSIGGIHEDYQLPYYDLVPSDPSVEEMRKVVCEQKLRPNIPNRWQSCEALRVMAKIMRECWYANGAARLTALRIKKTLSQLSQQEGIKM
# Experimental: as §1
# Chain of HIS-TGFβR2 WT (P37173 23-567): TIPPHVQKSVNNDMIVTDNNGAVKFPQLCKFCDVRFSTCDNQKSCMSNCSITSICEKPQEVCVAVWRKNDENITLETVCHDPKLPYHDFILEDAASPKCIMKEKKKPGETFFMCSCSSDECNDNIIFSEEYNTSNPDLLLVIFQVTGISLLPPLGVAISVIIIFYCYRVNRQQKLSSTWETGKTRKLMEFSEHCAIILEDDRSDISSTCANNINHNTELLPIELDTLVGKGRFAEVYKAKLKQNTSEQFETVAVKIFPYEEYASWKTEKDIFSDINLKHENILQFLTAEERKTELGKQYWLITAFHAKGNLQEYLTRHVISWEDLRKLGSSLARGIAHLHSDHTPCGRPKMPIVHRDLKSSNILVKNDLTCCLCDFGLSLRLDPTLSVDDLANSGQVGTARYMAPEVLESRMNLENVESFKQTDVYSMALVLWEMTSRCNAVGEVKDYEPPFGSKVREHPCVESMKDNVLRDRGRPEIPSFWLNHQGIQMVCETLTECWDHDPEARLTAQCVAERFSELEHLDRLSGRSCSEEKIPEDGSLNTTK
IC50 (HIS-TGFβR2 WT),IC50 (HIS-TGFβR1 T204D),SMILES
3100 nM,0.41 nM,"Fc1cnccc1Nc1nc(-c2cccc(C(F)F)n2)nc2[nH]cnc12 [Example 2, 2-(6-(difluoromethyl)pyridin-2-yl)-N-(3-fluoropyridin-4-yl)-9H-Purin-6-amine]"
> 15000 nM,1.1 nM,"Fc1cnccc1Nc1nc(-c2cccc(C(F)(F)F)n2)nc2[nH]cnc12 [Example 3, N-(3-fluoropyridin-4-yl)-2-(6-(trifluoromethyl)pyridin-2-yl)-9H-Purin-6-amine]"
2800 nM,0.36 nM,"Cc1nc(-c2nc(Nc3ccncc3F)c3nc[nH]c3n2)ccc1F [Example 5, 2-(5-fluoro-6-methylpyridin-2-yl)-N-(3-fluoropyridin-4-yl)-9H-Purin-6-amine]"
440 nM,0.36 nM,"CC(=O)Nc1cc(Nc2nc(-c3cccc(C)n3)nc3[nH]cnc23)ccn1 [Example 6, N-(4-((2-(6-methylpyridin-2-yl)-9H-Purin-6-yl)amino)pyridin-2-yl)acetamide]"
520 nM,0.72 nM,"CC(=O)Nc1cc(Nc2nc(-c3cccc(C(F)F)n3)nc3[nH]cnc23)ccn1 [Example 7, N-(4-((2-(6-(difluoromethyl)pyridin-2-yl)-9H-Purin-6-yl)amino)pyridin-2-yl)acetamide]"
1300 nM,–,"CC(=O)Nc1cc(Nc2nc(-c3cccc(C(F)(F)F)n3)nc3[nH]cnc23)ccn1 [Example 8, N-(4-((2-(6-(trifluoromethyl)pyridin-2-yl)-9H-Purin-6-yl)amino)pyridin-2-yl)acetamide]"
140 nM,0.9 nM,"CC(=O)Nc1cc(Nc2nc(-c3ccccn3)nc3[nH]cnc23)ccn1 [Example 9, N-(4-((2-(pyridin-2-yl)-9H-Purin-6-yl)amino)pyridin-2-yl)acetamide]"
> 15000 nM,8.9 nM,"CC(=O)Nc1nccc(Nc2nc(-c3cccc(C(F)(F)F)n3)nc3[nH]cnc23)c1F [Example 12, N-(3-fluoro-4-((2-(6-(trifluoromethyl)pyridin-2-yl)-9H-Purin-6-yl)amino)pyridin-2-yl)acetamide]"
> 15000 nM,1.6 nM,"CC(=O)Nc1cc(Nc2nc(-c3cccc(C(F)(F)F)n3)nc3[nH]c(C)nc23)ccn1 [Example 14, N-(4-((8-methyl-2-(6-(trifluoromethyl)pyridin-2-yl)-9H-Purin-6-yl)amino)pyridin-2-yl)acetamide]"
> 15000 nM,51 nM,"CC(=O)Nc1cc(Nc2nc(-c3cccc(C(F)(F)F)n3)nc3[nH]c(C)nc23)c(F)cn1 [Example 15, N-(5-fluoro-4-((8-methyl-2-(6-(trifluoromethyl)pyridin-2-yl)-9H-Purin-6-yl)amino)pyridin-2-yl)acetamide]"
> 15000 nM,5.3 nM,"Cc1nc2c(Nc3ccncc3F)nc(-c3cccc(C(F)(F)F)n3)nc2[nH]1 [Example 16, N-(3-fluoropyridin-4-yl)-8-methyl-2-(6-(trifluoromethyl)pyridin-2-yl)-9H-Purin-6-amine]"
> 15000 nM,1.6 nM,"CC(=O)Nc1cc(Nc2nc(-c3cccc(C(F)(F)F)n3)nc3[nH]c(C4CC4)nc23)ccn1 [Example 17, N-(4-((8-cyclopropyl-2-(6-(trifluoromethyl)pyridin-2-yl)-9H-Purin-6-yl)amino)pyridin-2-yl)acetamide]"
> 15000 nM,2 nM,"COC(=O)Nc1cc(Nc2nc(-c3cccc(C(F)(F)F)n3)nc3[nH]cnc23)ccn1 [Example 19, Methyl (4-((2-(6-(trifluoromethyl)pyridin-2-yl)-9H-purin-6-yl)amino)pyridin-2-yl)carbamate]"
470 nM,0.56 nM,"O=C(Nc1cc(Nc2nc(-c3cccc(C(F)(F)F)n3)nc3[nH]cnc23)ccn1)C1CC1 [Example 20, N-(4-((2-(6-(trifluoromethyl)pyridin-2-yl)-9H-purin-6-yl)amino)pyridin-2-yl)cyclopropanecarboxamide]"
> 15000 nM,0.45 nM,"COCC(=O)Nc1cc(Nc2nc(-c3cccc(C(F)(F)F)n3)nc3[nH]cnc23)ccn1 [Example 21, 2-methoxy-N-(4-((2-(6-(trifluoromethyl)pyridin-2-yl)-9H-purin-6-yl)amino)pyridin-2-yl)acetamide]"
> 15000 nM,1.1 nM,"COCCC(=O)Nc1cc(Nc2nc(-c3cccc(C(F)(F)F)n3)nc3[nH]cnc23)ccn1 [Example 22, 3-methoxy-N-(4-((2-(6-(trifluoromethyl)pyridin-2-yl)-9H-purin-6-yl)amino)pyridin-2-yl)propanamide]"
> 15000 nM,0.48 nM,"O=C(CCC(F)(F)F)Nc1cc(Nc2nc(-c3cccc(C(F)(F)F)n3)nc3[nH]cnc23)ccn1 [Example 23, 4,4,4-trifluoro-N-(4-((2-(6-(trifluoromethyl)pyridin-2-yl)-9H-purin-6-yl)amino)pyridin-2-yl)butanamide]"
290 nM,0.34 nM,"CC(=O)Nc1cc(Nc2nc(-c3ccc(F)c(C)n3)nc3[nH]cnc23)ccn1 [Example 24, N-(4-((2-(5-fluoro-6-methylpyridin-2-yl)-9H-purin-6-yl)amino)pyridin-2-yl)acetamide]"
